The values that follow come from patent US20210255193A1, “LYSINE REACTIVE PROBES AND USES THEREOF” (The Scripps Research Institute, priority 2017, published 2021).

Assay [1] addresses T1, ACBD3 Golgi resident protein GCP60 (Homo sapiens, UniProt Q9H3P7).
T1 construct: isoTOP-ABPP experiments performed in cell lysates (in vitro); endogenous in cells; host or cells: soluble proteome of human cancer cell lines (MDA-MB-231; Ramos and Jurkat also prepared)
T1 sequence (Q9H3P7 1-528): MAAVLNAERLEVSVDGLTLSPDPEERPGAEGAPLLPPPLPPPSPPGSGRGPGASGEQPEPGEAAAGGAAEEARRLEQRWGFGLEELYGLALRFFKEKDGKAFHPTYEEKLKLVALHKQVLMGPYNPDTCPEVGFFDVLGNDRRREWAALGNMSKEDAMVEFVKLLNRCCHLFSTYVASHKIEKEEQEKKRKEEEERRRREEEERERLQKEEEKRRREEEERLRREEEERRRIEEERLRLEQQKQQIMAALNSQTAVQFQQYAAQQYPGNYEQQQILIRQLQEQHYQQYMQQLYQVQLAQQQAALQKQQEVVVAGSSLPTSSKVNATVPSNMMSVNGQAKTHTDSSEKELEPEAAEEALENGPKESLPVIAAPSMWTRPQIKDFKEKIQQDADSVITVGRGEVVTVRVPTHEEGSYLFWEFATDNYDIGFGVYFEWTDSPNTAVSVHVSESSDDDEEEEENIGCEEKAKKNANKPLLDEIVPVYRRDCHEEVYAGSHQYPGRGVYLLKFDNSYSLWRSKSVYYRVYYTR
The experiment in a line: competitive isoTOP-ABPP. The arrangement: key to isoTOP-ABPP reactivity ratio at lysine Q9H3P7_K117: R = MS1 peak area ratio, DMSO (heavy) / compound-treated (light). The assay is classed as binding. The conditions noted are these: for isoTOP-ABPP reactivity ratio at lysine Q9H3P7_K117 / isoTOP-ABPP ratio (R) at liganded lysine Q9H3P7_K117: 50 uM, in vitro; for isoTOP-ABPP reactivity ratio at lysine Q9H3P7_K117: 231 sol; for isoTOP-ABPP ratio (R) at liganded lysine Q9H3P7_K117: sol, 231. How it is done: (§1) In vitro covalent fragment treatment for isoTOP-ABPP. All compounds were made up as solutions in DMSO (100×) and were used at a final concentration of 50 μM for activated esters and 100 μM for guanidinylating agents. For each profiling sample, 0.5 ml of lysate was treated with 5 μl of the 100× compound stock solution or 5 μl of DMSO. Samples were treated with activated esters for
(§2) STP-alkyne labeling and click chemistry. For concentration-dependent reactivity measurements by isoTOP-ABPP, 0.5 ml proteome aliquots were treated at ambient temperature with 1 mM STP-alkyne 1 (5 μl of 100 mM stock in DMSO) and 0.1 mM STP alkyne 1 (5 μl of 10 mM stock in DMSO), respectively. For competitive isoTOP-ABPP, after in vitro fragment treatment (detailed above), the samples were labeled for 1 h at ambient temperature with 0.1 mM STP-alkyne 1 (5 μl of 10 mM stock in DMSO). Samples were conjugated by copper-mediated azide-alkyne cycloaddition (CuAAC) to either the light (1 mM STP-alkyne or fragment treated) or heavy (0.1 mM STP-alkyne or DMSO treated) TEV tags (10 μl of 5 mM stocks in DMSO, final concentration=100 μM) using tris(2-carboxyethyl)phosphine hydrochloride
(§3) R value calculation and processing. The ratios of light and heavy MS1 peaks for each unique peptide were quantified with a CIMAGE software using default parameters (3 MS1 acquisitions per peak and signal to noise threshold set to 2.5). For reactivity measurements by isoTOP-ABPP, the R value was calculated from the ratio of MS1 peak areas, comparing the 1 mM STP alkyne sample (light TEV tag) with the 0.1 mM STP alkyne sample (heavy TEV tag). For competitive isoTOP-ABPP, the R value was calculated from the ratio of MS1 peak areas, comparing the DMSO treated sample (heavy TEV tag) with the compound treated sample (light TEV tag). […] Ratios for unique peptide entries are calculated for each experiment; overlapping peptides with the same modified lysine (for example, different charge states, MudPIT chromatographic steps or tryptic termini) are grouped together and the median ratio is reported as the final ratio (R). The peptide ratios reported by CIMAGE were further filtered to ensure the removal or correction of low-quality ratios in each individual data set. The quality filters applied were the following: removal of half tryptic peptides; for ratios with high standard deviations from the median (90% of the median or above) the lowest ratio was taken instead of the median; removal of peptides with R=20 and only a single MS2 event triggered during the elution of the parent ion; manual annotation of all the peptides with ratios of 20, removing any peptides with low quality elution profiles that remained after the previous curation steps (only done for competitive isoTOP-ABPP).
(§4) Cross-data processing for fragment screening. For compound treated samples, biological replicates of the same condition were averaged, if the standard deviation was below 60% of the mean; otherwise, for lysines with at least one R value <4 for a particular compound, the lowest value of the ratio set was taken. For lysines, where all R values for a particular compound were ≥4, the average was reported. For peptides containing several possible modified lysines, the lysine with the highest number of quantification events was used for analysis and the remaining, redundant peptides were reported as alternative modification sites. Peptides included in the aggregate dataset (those used for further bioinformatics and statistical analyses) were required to have been quantified in 2 experiments for competitive isoTOP-ABPP. Lysines were categorized as liganded, if they had at least one ratio R≥4 (hit fragments). For liganded lysines with R=20 for all liganding events, lysines were required to have been quantified with R=20 in two separate experiments and were further required to have been quantified with R<20 in one additional experiment.

In assay [2] the target is T2, TPMT Thiopurine S-methyltransferase (Homo sapiens, UniProt P51580).
T2 construct: isoTOP-ABPP experiments performed in cell lysates (in vitro); endogenous in cells; host or cells: soluble proteome of human cancer cell lines (MDA-MB-231; Ramos and Jurkat also prepared)
T2 sequence (P51580 1-245): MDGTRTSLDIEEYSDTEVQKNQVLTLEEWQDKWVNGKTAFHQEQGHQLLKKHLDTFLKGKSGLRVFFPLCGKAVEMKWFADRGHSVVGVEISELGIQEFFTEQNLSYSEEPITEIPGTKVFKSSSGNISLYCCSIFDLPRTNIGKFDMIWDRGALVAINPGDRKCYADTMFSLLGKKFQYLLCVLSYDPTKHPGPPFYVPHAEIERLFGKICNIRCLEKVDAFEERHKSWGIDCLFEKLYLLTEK
The experiment in a line: competitive isoTOP-ABPP. Particulars: for isoTOP-ABPP reactivity ratio at lysine P51580_K32 / isoTOP-ABPP ratio (R) at liganded lysine P51580_K32: 50 uM, in vitro; for isoTOP-ABPP reactivity ratio at lysine P51580_K32: 231 sol; for isoTOP-ABPP ratio (R) at liganded lysine P51580_K32: sol, 231. The format is binding. The arrangement: key to isoTOP-ABPP reactivity ratio at lysine P51580_K32: R = MS1 peak area ratio, DMSO (heavy) / compound-treated (light). Here is the method:
as §1, §2, §3, §4

On to `O=C(Oc1ccc([N+](=O)[O-])cc1[N+](=O)[O-])c1cc(C(F)(F)F)cc(C(F)(F)F)c1` [fragment 31, 2,4-Dinitrophenyl 3,5-bis(trifluoromethyl)benzoate], for which the “isoTOP-ABPP reactivity ratio at lysine Q9H3P7_K117” value in assay [1] stood at 1.1. Further, the “isoTOP-ABPP reactivity ratio at lysine P51580_K32” value in assay [2] is 2.5.
For `Cn1cc(CC(=O)Oc2ccc([N+](=O)[O-])cc2[N+](=O)[O-])c2ccccc21` [fragment 32, 2,4-Dinitrophenyl 2-(1-methyl-1H-indol-3-yl)acetate], in that order: 1.3 and 2.5.
On the same counts, the results for `COc1cc(CCC(=O)Oc2ccc([N+](=O)[O-])cc2[N+](=O)[O-])cc(OC)c1OC` [fragment 33, 2,4-Dinitrophenyl 3-(3,4,5-trimethoxyphenyl)propanoate] are 1.1 and 3.7.
As to `O=C(Oc1ccc([N+](=O)[O-])cc1[N+](=O)[O-])C1CCN(C(=O)OCc2ccccc2)CC1` [fragment 34, 1-Benzyl 4-(2,4-dinitrophenyl) piperidine-1,4-dicarboxylate], the “isoTOP-ABPP ratio (R) at liganded lysine Q9H3P7_K117” value in assay [1] amounted to 1.1. In addition, in assay [2], the “isoTOP-ABPP ratio (R) at liganded lysine P51580_K32” value came out at 1.6.
For `O=C(CCc1coc2cc(F)ccc2c1=O)Oc1ccc([N+](=O)[O-])cc1[N+](=O)[O-]` [fragment 36, 2,4-Dinitrophenyl 3-(7-fluoro-4-oxo-4H-chromen-3-yl)propanoate], in that order: 1.4 and 3.4.
On the same counts, the results for `O=C(Oc1ccc([N+](=O)[O-])cc1[N+](=O)[O-])c1ccc(-c2ccccc2)cc1` [fragment 37, 2,4-Dinitrophenyl [1,1′-biphenyl]-4-carboxylate] are 0.9 and 1.5.
On the same counts, the results for `O=C(CC12CC3CC(CC(C3)C1)C2)Oc1ccc([N+](=O)[O-])cc1[N+](=O)[O-]` [fragment 38, 2,4-Dinitrophenyl 2-(adamantan-1-yl)acetate] are 1.0 and 1.1.
On to `O=C(Oc1ccc([N+](=O)[O-])cc1[N+](=O)[O-])c1ccc(Oc2ccccc2)cc1` [fragment 39, 2,4-Dinitrophenyl 4-phenoxybenzoate], for which the “isoTOP-ABPP ratio (R) at liganded lysine Q9H3P7_K117” value in assay [1] was determined as 0.9. In assay [2], the “isoTOP-ABPP ratio (R) at liganded lysine P51580_K32” value was determined as 1.0.
For `O=C(Oc1ccc([N+](=O)[O-])cc1[N+](=O)[O-])c1ccccc1Nc1cccc(C(F)(F)F)c1` [fragment 40, 2,4-Dinitrophenyl 2-((3-(trifluoromethyl)phenyl)amino)benzoate], in assay [1], the “isoTOP-ABPP ratio (R) at liganded lysine Q9H3P7_K117” value stood at 0.9. Besides, the “isoTOP-ABPP ratio (R) at liganded lysine P51580_K32” value in assay [2] was determined as 1.1.
As for `CC(C)(C)OC(=O)NCCCC(=O)Oc1ccc([N+](=O)[O-])cc1[N+](=O)[O-]` [fragment 41, 2,4-Dinitrophenyl 4-((tert-butoxycarbonyl)amino)butanoate], in assay [1], the “isoTOP-ABPP ratio (R) at liganded lysine Q9H3P7_K117” value is 1.2. Moreover, the “isoTOP-ABPP ratio (R) at liganded lysine P51580_K32” value in assay [2] was found to be 1.5.
On the same counts, the results for `O=C(Oc1ccc([N+](=O)[O-])cc1[N+](=O)[O-])C(c1ccccc1)(c1ccccc1)c1ccccc1` [fragment 42, 2,4-Dinitrophenyl 2,2,2-triphenylacetate] are 1.0 and 0.9.
`CC(=O)Oc1ccc([N+](=O)[O-])cc1[N+](=O)[O-]` [fragment 43, 2,4-Dinitrophenyl acetate]: the “isoTOP-ABPP ratio (R) at liganded lysine Q9H3P7_K117” value in assay [1] came to 1.2. For the same compound, the “isoTOP-ABPP ratio (R) at liganded lysine P51580_K32” value in assay [2] turned out to be 1.5.
With `N#Cc1ccc(C(=O)Oc2ccc([N+](=O)[O-])cc2[N+](=O)[O-])cc1` [fragment 44, 2,4-Dinitrophenyl 4-cyanobenzoate], the “isoTOP-ABPP ratio, lysine Q9H3P7_K117” value in assay [1] (50 uM_231_sol_in vitro) is given as 0.8. In addition, the “isoTOP-ABPP ratio, lysine P51580_K32” value in assay [2] (50 uM_231_sol_in vitro) turned out to be 1.4.
For `O=C(CCc1ccc2c(c1)OCO2)Oc1ccc([N+](=O)[O-])cc1[N+](=O)[O-]` [fragment 45, 2,4-Dinitrophenyl 3-(benzo[d][1,3]dioxol-5-yl)propanoate], in that order: 1.1 and 2.3.
On the same counts, the results for `O=C(ON1C(=O)CCC1=O)c1cc(C(F)(F)F)cc(C(F)(F)F)c1` [fragment 46, 3,5-Bis(trifluoromethyl)benzoic acid NHS ester] are 7.7 and 20.0.
For `O=C(Oc1c(F)c(F)c(C(F)(F)F)c(F)c1F)c1cc(C(F)(F)F)cc(C(F)(F)F)c1` [fragment 47, 2,3,5,6-Tetrafluoro-4-(trifluoromethyl)phenyl 3,5-bis(trifluoromethyl)benzoate], in that order: 1.0 and 9.5.
On to `O=C(Oc1c(F)c(F)cc(F)c1F)c1cc(C(F)(F)F)cc(C(F)(F)F)c1` [fragment 48, 2,3,5,6-Tetrafluorophenyl 3,5-bis(trifluoromethyl)benzoate], for which, in assay [1] (50 uM_231_sol_in vitro), the “isoTOP-ABPP ratio, lysine Q9H3P7_K117” value amounted to 0.9. Also, the “isoTOP-ABPP ratio, lysine P51580_K32” value in assay [2] (50 uM_231_sol_in vitro) is reported as 4.4.
As for `CC(C)(C)OC(=O)N=C(NC(=O)OC(C)(C)C)n1cccn1` [fragment 50, reference compound], the “isoTOP-ABPP ratio, lysine Q9H3P7_K117” value in assay [1] (100 uM_231_sol_in vitro) stood at 14.9. In addition, the “isoTOP-ABPP ratio, lysine P51580_K32” value in assay [2] (100 uM_231_sol_in vitro) was 11.7.
For the compound `NC(=O)c1cc(C(F)(F)F)cc(C(F)(F)F)c1` [fragment 51, reference compound], the “isoTOP-ABPP ratio, lysine Q9H3P7_K117” value in assay [1] (50 uM_231_sol_in vitro) was determined as 0.9. Moreover, in assay [2] (50 uM_231_sol_in vitro), the “isoTOP-ABPP ratio, lysine P51580_K32” value amounted to 0.8.
